Experimental data reported in patent US20140248291A1, “Modulation of Cellular Migration” (THE UAB RESEARCH FOUNDATION, priority 2011, published 2014).

Experiments:
D54-MG-GFP glioma cells = experiment: Transwell migration assay; format: cell-based, human; conditions: antagonist 1 μM with BK, 5 h
Protocol: The day before the experiment was performed, ˜70% confluent dishes of cells were prepared. Transwell migration Fluoroblock cell culture inserts (BD Biosciences, San Jose, Calif.) with 8 μm pores were coated overnight with Vitronectin (BD Biosciences, San Jose, Calif.) at a concentration of 5 μg/ml in PBS. The following day, inserts were blocked with 1% fatty acid-free bovine serum albumin for 1 h. Inserts were then washed two times in PBS, and 400 μl of Migration Assay Buffer (MAB, 0.1% fatty acid-free bovine serum albumin in serum-free media) was added to the bottom of each well. Cells were rinsed once in PBS and were lifted off the dish by the addition of 0.5 mm EGTA. Cells were rinsed twice by centrifugation and resuspended in MAB and counted. Forty thousand cells were plated on the top of each filter and allowed to adhere for 30 min before drug was added. When BK+/−antagonists was added to the filters, it was added only to the bottom of the filter for chemotaxis. For migration assay, D54-EGFP MG cells were allowed to migrate for 5 hours, washed with PBS, fixed with 4% paraformaldehyde 15 minutes at room temperature, washed thrice and counterstained with DAPI for 5 minutes at room temperature. Invasion assay was performed similarly. Matrigel cell cultured inserts (BD Biosciences, San Jose, Calif.) with 8 μm pores were pretreated Vitronectin and blocked as described above. […] The number of nuclei that migrated through pores was counted. All counts per treatment were averaged and SE values were calculated. […]
To investigate the hypothesis that BK promotes glioma migration in vitro, we used Transwell migration assay which conveniently permit examination of cell migration across a membrane barrier with 8 μm pores towards vitronectin, a chemo-attractant extracellular matrix protein. This frequently used assay allows a quantitative study of drug effects with regards to drugs acting as motogens or as chemo-attractants. […]

BK = BK (Homo sapiens, UniProt P30411); conditions: cited from earlier work
rat B1 BK receptor = target: T1, rat B1 BK receptor (Rattus norvegicus, UniProt P97583); conditions: cited from earlier work
T1 sequence (P97583 1-337): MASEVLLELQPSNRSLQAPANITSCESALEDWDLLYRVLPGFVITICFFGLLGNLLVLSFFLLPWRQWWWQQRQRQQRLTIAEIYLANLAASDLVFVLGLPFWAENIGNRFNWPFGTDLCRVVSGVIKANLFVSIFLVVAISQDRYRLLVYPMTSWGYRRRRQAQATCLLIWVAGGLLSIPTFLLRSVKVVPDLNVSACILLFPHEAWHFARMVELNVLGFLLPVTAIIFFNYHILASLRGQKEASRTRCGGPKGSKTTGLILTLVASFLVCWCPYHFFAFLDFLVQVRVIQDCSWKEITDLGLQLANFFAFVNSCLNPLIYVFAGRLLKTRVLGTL

rat B2R = target: T2, rat B2R (Rattus norvegicus, UniProt P25023); design: expressed in transfected cells; host or cells: Cos-7 cells; conditions: Cos-7 cells expressing the rat receptor, n=3; read-out: KI, displacement of [3H]-BK binding; cited from earlier work
T2 sequence (P25023 1-396): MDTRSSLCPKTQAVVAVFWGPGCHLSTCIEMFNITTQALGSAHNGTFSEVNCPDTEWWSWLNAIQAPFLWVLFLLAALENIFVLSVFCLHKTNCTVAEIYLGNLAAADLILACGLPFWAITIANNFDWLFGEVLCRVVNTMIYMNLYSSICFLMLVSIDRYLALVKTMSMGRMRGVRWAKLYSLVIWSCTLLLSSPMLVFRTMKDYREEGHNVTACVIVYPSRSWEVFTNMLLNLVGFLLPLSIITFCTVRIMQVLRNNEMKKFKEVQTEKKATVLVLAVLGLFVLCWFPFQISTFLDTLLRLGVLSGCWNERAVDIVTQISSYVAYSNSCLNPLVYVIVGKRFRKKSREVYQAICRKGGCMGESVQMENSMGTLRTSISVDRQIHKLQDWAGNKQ

BK, sequence (P30411 whole entry, species assumed): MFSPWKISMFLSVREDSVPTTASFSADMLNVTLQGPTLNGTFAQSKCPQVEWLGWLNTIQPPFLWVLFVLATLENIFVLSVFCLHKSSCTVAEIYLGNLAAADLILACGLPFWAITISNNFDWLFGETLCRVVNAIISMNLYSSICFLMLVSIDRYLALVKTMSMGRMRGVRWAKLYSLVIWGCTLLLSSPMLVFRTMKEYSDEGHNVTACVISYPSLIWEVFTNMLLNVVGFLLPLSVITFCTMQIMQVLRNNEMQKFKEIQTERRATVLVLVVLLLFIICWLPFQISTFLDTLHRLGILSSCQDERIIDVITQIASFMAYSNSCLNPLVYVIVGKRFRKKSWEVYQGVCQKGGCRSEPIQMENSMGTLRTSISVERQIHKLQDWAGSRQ

Row | SMILES | BK-induced increase in cells migrating through the pores (D54-MG-GFP glioma cells) | potency relative to D-Arg-[Hyp^2, Thi^5,8, D-Phe^7]BK (BK) | interaction with rat B1 BK receptor (rat B1 BK receptor) | Ki (rat B2R)
1 | N=C(N)NCCCC(NC(=O)[C@H](N)CCCNC(=N)N)C(=O)N1CCC[C@H]1C(=O)N1C[C@H](O)C[C@H]1C(=O)NCC(=O)N[C@@H](Cc1cccs1)C(=O)N[C@@H](CO)C(=O)N1Cc2ccccc2C[C@@H]1C(=O)N1C2CCCCC2C[C@H]1C(=O)N[C@H](CCCNC(=N)N)C(=O)O (stereo partly drawn) [HOE-140, D-Arg-[Hyp^3, Thi^5, D-Tic^7, Oic^8]bradykinin] | eliminated | two to three orders of magnitude more potency |  | 
2 | CN(C)CCN(C)CCNC(=O)[C@@H]1CCCN1S(=O)(=O)c1ccc(NNC(=S)NC(c2ccccc2)c2ccccc2)c([N+](=O)[O-])c1 [Bradyzide] | eliminated |  | does not interact | 0.89 nM
